Earlier results, collected in patent WO2011103442A2, “Synthesis of the potent immunosuppressant agents dalesconol a and b” (Columbia University in the City of New York, priority 2010, dated 2011).
In brackets after ≈: the same amount, converted by molar mass.

What was measured:
[1] = compared with cyclosporin A
[2] = for IC50, immunosuppressive activity: as repeated in the Discussion
[3] = biological target: acetylcholinesterase (Homo sapiens, UniProt P22303)
[4] = system: ConA-induced proliferation of mouse spleen cells; details: in vitro

Sequence of acetylcholinesterase (P22303 32-614): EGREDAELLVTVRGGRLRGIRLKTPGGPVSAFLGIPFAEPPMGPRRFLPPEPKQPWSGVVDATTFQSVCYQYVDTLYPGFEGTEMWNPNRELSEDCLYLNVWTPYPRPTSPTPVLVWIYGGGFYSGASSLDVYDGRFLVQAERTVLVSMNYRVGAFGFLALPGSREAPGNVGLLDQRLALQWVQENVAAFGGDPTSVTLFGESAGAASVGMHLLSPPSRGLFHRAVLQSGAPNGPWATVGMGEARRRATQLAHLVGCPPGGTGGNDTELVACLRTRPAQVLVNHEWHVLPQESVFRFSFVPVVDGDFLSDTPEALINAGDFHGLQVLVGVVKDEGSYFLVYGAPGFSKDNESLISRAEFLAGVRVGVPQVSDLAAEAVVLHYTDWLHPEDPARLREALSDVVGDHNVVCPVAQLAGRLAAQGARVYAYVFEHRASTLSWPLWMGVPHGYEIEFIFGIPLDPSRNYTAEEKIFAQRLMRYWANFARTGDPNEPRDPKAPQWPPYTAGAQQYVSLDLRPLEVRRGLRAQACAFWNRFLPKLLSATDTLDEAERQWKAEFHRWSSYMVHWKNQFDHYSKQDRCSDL

Row | Compound | background cytotoxicity relative to cyclosporin A [1] | IC50, immunosuppressive activity [2] [ng/mL] | immunosuppressive potency of racemic mixture versus separated enantiomers ([2]; racemic mixture) | acetylcholinesterase inhibition [3] | selectivity factor, activity versus cytotoxic effects [4]
1 | O=C1CC2CC(=O)c3c(O)cccc3C23C(=C2C=CC(=O)c4c(O)ccc3c42)c2cccc(O)c21 (stereo not drawn) [dalesconol A] | significantly reduced background cytotoxicity | 0.00016 (≈ 0.000346 nM) | more potent than their separated enantiomers | potent acetylcholinesterase inhibitor | greater than 500
2 | cyclosporin A [reference compound] |  | 6e-05 |  |  | 
